From US10806694B2, “Nanoparticles for photodynamic therapy, X-ray induced photodynamic therapy, radiotherapy, radiodynamic therapy, chemotherapy, immunotherapy, and any combination thereof” (The University of Chicago, priority 2014, dated 2020)

Legend:
CT26 cells = experiment: Apoptosis after PDT, Annexin V/dead cell kit, flow cytometry; type: cell-based, murine; conditions: 5 μM
Experimental: CT26 cells were incubated with 5 μM DBC-UiO or H2DBC followed by light irradiation at 0.1 W/cm^2 for 15 min (90 J/cm^2). The apoptosis induced by PDT treatment was determined with the Alexa Fluor 488 Annexin V/dead cell apoptosis kit by flow cytometry. […] Calreticulin (CRT) is a distinct biomarker exposed on the surface of cells undergoing ICD. The CRT expression was determined by flow cytometry and immunofluorescence to assess the ICD induced by DBC-UiO induced PDT. CT26 cells were treated with 5 μM DBC-UiO or H2DBC followed by light irradiation at 0.1 W/cm^2 for 15 min (90 J/cm^2). For flow cytometry analysis, cells were collected and stained with Alexa Fluor 488-CRT antibody and propidium iodide (PI). The fluorescence intensity of stained cells was gated on PI-negative cells. For immunostaining analysis, the cells were stained with AlexaFluor 488-CRT conjugated antibody and DAPI nuclei stain, and observed using confocal laser scanning microscopy (CLSM).

[1] = test system: SQ20B subcutaneous xenograft murine models; experiment: In vivo PDT efficacy; design: species or system mice; conditions: 3.5 mg/kg intratumoral, 180 J/cm^2, single treatment
Experimental: The PDT efficacy of DBP-UiO was investigated using SQ20B subcutaneous xenograft murine models. Tumor bearing mice were established by subcutaneous inoculation of SQ20B cell suspension (5×10^6 cells per mouse) into the right flank region of 6-week athymic female nude mice. Three groups were included for comparison: PBS as control, H2DBP, and DBP-UiO. When tumors reached 100 mm^3, PBS, H2DBP, and DBP-UiO were intratumorally injected to animals at a DBP dose of 3.5 mg/kg. At 12 h post-injection, mice were anesthetized with 2% (v/v) isoflurane and tumors were irradiated with a 640 nm LED for 30 min. The light intensity was measured as 100 mW/cm^2, and the total light dose was 180 J/cm^2. Both injection and PDT were performed once.
To evaluate the therapeutic efficacy, tumor growth and body weight evolution were monitored. The tumor size was measured with a digital caliper every day. Tumor volumes were calculated as follows: (width^2×length)/2. Finally, all mice were sacrificed on Day 8, and the excised tumors were photographed and weighed. Tumors were fixed with formalin. Paraffin-embedded 5 μm tumor sections were stained with hematoxylin and erosin (H&E) and observed with light microscopy (Pannoramic Scan Whole Slide Scanner, Perkin Elmer, Waltham, Mass., United States of America).
In vivo experiments on SQ20B subcutaneous xenograft murine models were carried out. […]

Compound | apoptosis or necrosis (CT26 cells; in the dark) | apoptosis (CT26 cells; light irradiation 90 J/cm^2) | tumor growth [1]
5, 15-di(p-benzoato)chlorin [H2DBC] | No apoptosis or necrosis was observed | significant amounts of cells underwent apoptosis | 
O=C(O)c1ccc(-c2c3nc(cc4ccc([nH]4)c(-c4ccc(C(=O)O)cc4)c4nc(cc5ccc2[nH]5)C=C4)C=C3)cc1 [H2DBP, 5,15-di(p-benzoato)porphyrin] |  |  | slightly suppressed after PDT, however accelerated after 5 days and exhibited no difference to the control group at the endpoint
